Results reported in ChEMBL document CHEMBL1135153, “Cephalosporin-derived inhibitors of beta-lactamase. Part 4: The C3 substituent” (Bioorg Med Chem Lett, 2002).

Target: Beta-lactamase (Enterobacter cloacae, UniProt P05364)
Test: Inhibitory activity against Class C beta-lactamase

Chain of Beta-lactamase (P05364 whole entry): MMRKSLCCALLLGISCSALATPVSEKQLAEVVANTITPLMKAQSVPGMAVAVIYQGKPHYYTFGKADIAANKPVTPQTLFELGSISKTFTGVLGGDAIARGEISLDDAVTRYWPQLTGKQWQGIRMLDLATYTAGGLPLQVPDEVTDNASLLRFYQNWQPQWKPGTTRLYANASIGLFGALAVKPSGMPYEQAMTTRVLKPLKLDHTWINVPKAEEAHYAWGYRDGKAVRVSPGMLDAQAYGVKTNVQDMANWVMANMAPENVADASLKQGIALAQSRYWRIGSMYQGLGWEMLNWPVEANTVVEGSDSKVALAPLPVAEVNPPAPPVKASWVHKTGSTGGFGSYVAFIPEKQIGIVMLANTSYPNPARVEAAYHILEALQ

| Compound | IC50 |
| --- | --- |
| O=C(O)C1=C(S(=O)(=O)c2ccccc2)CS(=O)(=O)[C@@H]2/C(=C\c3ccccn3)C(=O)N12 | 174 nM |
| O=C(O)C1=C(Cl)CS(=O)(=O)[C@@H]2/C(=C\c3ccccn3)C(=O)N12 | 3 nM |
| O=C(O)C1=C(c2ccccc2)CS(=O)(=O)[C@@H]2/C(=C\c3ccccn3)C(=O)N12 | 38 nM |
| O=C(/C=C/C1=C(C(=O)O)N2C(=O)/C(=C/c3ccccn3)[C@H]2S(=O)(=O)C1)Nc1c(F)c(F)c(F)c(F)c1F | 127 nM |
| CSC1=C(C(=O)O)N2C(=O)/C(=C/c3ccccn3)[C@H]2S(=O)(=O)C1 | 59 nM |
| O=C(/C=C/C1=C(C(=O)O)N2C(=O)/C(=C/c3ccccn3)[C@H]2S(=O)(=O)C1)NO | 128 nM |
| CN1CCN(C(=O)/C=C/C2=C(C(=O)O)N3C(=O)/C(=C/c4ccccn4)[C@H]3S(=O)(=O)C2)CC1 | 6340 nM |
| O=C(/C=C/C1=C(C(=O)O)N2C(=O)/C(=C/c3ccccn3)[C@H]2S(=O)(=O)C1)NC1CC1 | 824 nM |
| NCCCNC(=O)/C=C/C1=C(C(=O)O)N2C(=O)/C(=C/c3ccccn3)[C@H]2S(=O)(=O)C1 | 4200 nM |
| O=C(/C=C/C1=C(C(=O)O)N2C(=O)/C(=C/c3ccccn3)[C@H]2S(=O)(=O)C1)NCC(F)(F)F | 1180 nM |
| N=C(N)NCCNC(=O)/C=C/C1=C(C(=O)O)N2C(=O)/C(=C/c3ccccn3)[C@H]2S(=O)(=O)C1 | 5.5 nM |
| O=C(O)C1=C(I)CS(=O)(=O)[C@@H]2/C(=C\c3ccccn3)C(=O)N12 | 4.7 nM |
| O=C(O)C1=C(Br)CS(=O)(=O)[C@@H]2/C(=C\c3ccccn3)C(=O)N12 | 2.9 nM |
| O=C(O)C1=C(c2cccs2)CS(=O)(=O)[C@@H]2/C(=C\c3ccccn3)C(=O)N12 | 40.3 nM |
| O=C(O)C1=C(C(=O)O)N2C(=O)/C(=C/c3ccccn3)[C@H]2S(=O)(=O)C1 | 32 nM |

More lines, in order of falling IC50, values ahead:

| IC50 | Compound |
| --- | --- |
| 1100 nM | NNC(=O)/C=C/C1=C(C(=O)O)N2C(=O)/C(=C/c3ccccn3)[C@H]2S(=O)(=O)C1 |
| 310 nM | O=C(O)CNC(=O)/C=C/C1=C(C(=O)O)N2C(=O)/C(=C/c3ccccn3)[C@H]2S(=O)(=O)C1 |
| 212 nM | O=C(/C=C/C1=C(C(=O)O)N2C(=O)/C(=C/c3ccccn3)[C@H]2S(=O)(=O)C1)NCCO |
| 116 nM | O=C(O)C1=CCS(=O)(=O)[C@@H]2/C(=C\c3ccccn3)C(=O)N12 |
| 110 nM | O=C(/C=C/C1=C(C(=O)O)N2C(=O)/C(=C/c3ccccn3)[C@H]2S(=O)(=O)C1)NCc1ccccc1 |
| 90.7 nM | CS(=O)(=O)C1=C(C(=O)O)N2C(=O)/C(=C/c3ccccn3)[C@H]2S(=O)(=O)C1 |
| 35 nM | O=C(/C=C/C1=C(C(=O)O)N2C(=O)/C(=C/c3ccccn3)[C@H]2S(=O)(=O)C1)Nc1ccc(O)cc1 |
| 22 nM | NC(=O)/C=C/C1=C(C(=O)O)N2C(=O)/C(=C/c3ccccn3)[C@H]2S(=O)(=O)C1 |
| 21.7 nM | O=C(O)C1=C(Sc2ccccc2)CS(=O)(=O)[C@@H]2/C(=C\c3ccccn3)C(=O)N12 |
| 11 nM | O=C(O)C1=C(F)CS(=O)(=O)[C@@H]2/C(=C\c3ccccn3)C(=O)N12 |
